The record followed here is patent US20090186918A1, “Triazole Compounds as Lipoxygenase Inhibitors” (priority 2005, published 2009).

Structures are written as SMILES.

In the first experiment the target is T1, purified human 15-lipoxygenase (Homo sapiens, UniProt P16050).
T1 sequence (P16050 1-662): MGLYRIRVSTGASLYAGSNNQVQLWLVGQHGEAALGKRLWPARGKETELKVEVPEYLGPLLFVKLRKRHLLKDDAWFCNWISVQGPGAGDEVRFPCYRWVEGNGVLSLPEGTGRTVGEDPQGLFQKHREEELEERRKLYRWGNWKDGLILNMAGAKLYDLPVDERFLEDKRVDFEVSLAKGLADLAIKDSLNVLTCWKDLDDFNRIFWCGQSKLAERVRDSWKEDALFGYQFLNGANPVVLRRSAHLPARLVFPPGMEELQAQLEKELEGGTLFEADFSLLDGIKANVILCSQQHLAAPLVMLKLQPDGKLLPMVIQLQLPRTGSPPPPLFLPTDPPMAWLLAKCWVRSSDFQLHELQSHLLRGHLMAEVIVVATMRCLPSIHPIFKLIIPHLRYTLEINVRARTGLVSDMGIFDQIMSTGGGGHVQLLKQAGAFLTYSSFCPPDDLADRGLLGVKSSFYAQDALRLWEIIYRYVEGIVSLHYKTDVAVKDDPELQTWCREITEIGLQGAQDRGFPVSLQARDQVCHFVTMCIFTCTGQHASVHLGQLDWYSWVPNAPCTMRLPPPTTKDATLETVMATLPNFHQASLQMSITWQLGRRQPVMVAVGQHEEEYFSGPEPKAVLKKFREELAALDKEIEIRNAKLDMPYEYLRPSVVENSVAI
Briefly: 15-lipoxygenase inhibition assay (arachidonic acid oxidation, 15-HPETE/15-HETE measured by reverse phase HPLC). In kind it is biochemical.
Conditions: not given
The protocol: The assay employed takes advantage of the ability of lipoxygenases to oxidize polyunsaturated fatty acids, containing a 1,4-cis-pentadiene configuration, to their corresponding hydroperoxy or hydroxyl derivatives. In this particular assay, the lipoxygenase was a purified human 15-lipoxygenase and the fatty acid was arachidonic acid. The assay is performed at room temperature (20-22° C.) and the following are added to each well in a 96-well microtiter plate:
a) 35 μL phosphate buffered saline (PBS) (pH 7.4); b) inhibitor (i.e. compound) or vehicle (0.5 μl DMSO); c) 10 μL of a 10× concentrated solution of 15-lipoxygenase in PBS. The plates are incubated for 5 minutes at room temperature;
d) 5 μl of 0.125 mM arachidonic acid in PBS. The plate is then incubated for 10 minutes at room temperature;
e) the enzymatic reaction is terminated by the addition of 100 μl methanol; and f) the amount of 15-hydroperoxy-eicosatetraenoic acid or 15-hydroxy-eicosatetraenoic acid is measured by reverse phase HPLC.
`O=C(Nc1cnc2ccccc2c1)c1cn[nH]n1` [Example 1, 1,2,3-Triazole-4-carboxylic acid quinolin-3-ylamide] had a concentration for half-maximal inhibition (IC50) of 1.4 µM.

The experiment is the same for the next values; noted with them: purified human 15-lipoxygenase, arachidonic acid substrate, room temperature; read-out: IC50.
For `O=C(Nc1cc(Cl)cc(Cl)c1)c1c[nH]nn1` [Example 82, 1,2,3-Triazole-4-carboxylic acid (3,5-dichlorophenyl)amide], the half-maximal inhibitory concentration (IC50) is 4.1 µM.

Regarding `O=C(Nc1ccc(Cl)c(Cl)c1Cl)c1c[nH]nn1` [Example 6, 1,2,3-Triazole-4-carboxylic acid (2,3,4-trichlorophenyl)amide], the half-inhibitory concentration (IC50) worked out at 0.33 µM.

Consider `Cc1ccc(NC(=O)c2c[nH]nn2)cc1F` [Example 91, 1,2,3-Triazole-4-carboxylic acid (3-fluoro-4-methylphenyl)amide], for which the half-inhibitory concentration (IC50) turned out to be 9.4 µM.

For `O=C(Nc1cc(Cl)c(Cl)cc1Cl)c1c[nH]nn1` [Example 12, 1,2,3-Triazole-4-carboxylic acid (2,4,5-trichlorophenyl)amide], the half-inhibitory concentration (IC50) was 0.76 µM.

`Cc1cc(NC(=O)c2c[nH]nn2)ccc1Cl` [Example 18, 1,2,3-Triazole-4-carboxylic acid (4-chloro-3-methylphenyl)amide]: the IC50 was determined as 0.95 µM.

`O=C(Nc1ccc(C(F)(F)F)cc1[N+](=O)[O-])c1c[nH]nn1` [Example 73, 1,2,3-Triazole-4-carboxylic acid 2-nitro-4-(trifluoromethyl)phenylamide]: the IC50 amounted to 3.8 µM.

In the case of `O=C(Nc1ccc(Cl)cc1C(F)(F)F)c1c[nH]nn1` [Example 75, 1,2,3-Triazole-4-carboxylic acid 4-chloro-2-(trifluoromethyl)phenylamide], the IC50 was found to be 0.25 µM.

With `O=C(Nc1ccc(Cl)cc1F)c1c[nH]nn1` [Example 76, 1,2,3-Triazole-4-carboxylic acid 4-chloro-2-fluorophenylamide], the half-inhibitory concentration (IC50) is 0.53 µM.

Regarding `O=C(Nc1ccc(C(F)(F)F)cc1C(F)(F)F)c1c[nH]nn1` [Example 36, 1,2,3-Triazole-4-carboxylic acid [2,4-bis(trifluoromethyl)phenyl]amide], the concentration for half-maximal inhibition (IC50) was 1.16 µM.

On to `O=C(Nc1ccc(Cl)c(Cl)c1)c1c[nH]nn1` [Example 9, 1,2,3-Triazole-4-carboxylic acid (3,4-dichlorophenyl)amide], for which the half-maximal inhibitory concentration (IC50) was 1.6 µM.

As for `O=C(Nc1ccc(Cl)cn1)c1c[nH]nn1` [Example 7, 1,2,3-Triazole-4-carboxylic acid (5-chloropyridin-2-yl)amide], the half-inhibitory concentration (IC50) turned out to be 1.8 µM.

Consider `O=C(Nc1ccc(Br)cn1)c1c[nH]nn1` [Example 35, 1,2,3-Triazole-4-carboxylic acid (5-bromopyridin-2-yl)amide], for which the 50% inhibitory concentration (IC50) was found to be 0.81 µM.

The term IC50 denotes the point on the concentration scale where inhibition reaches its midpoint.
